Reference: patent US20240174690A1, “ANNULATED 2-AMINO-3-CYANO THIOPHENES AND DERIVATIVES FOR THE TREATMENT OF CANCER” (BOEHRINGER INGELHEIM INTERNATIONAL GMBH, priority 2021, published 2024)

System: Caco-2 cell monolayers
Assay: Caco-2 assay (permeability PappAB, PappBA, efflux ratio)
Assay type: in vitro ADME
Details: 10 μM test compound, pH 7.4
Method in brief: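 Bidirectional permeability (apical-to-basolateral and reverse) through polarized Caco-2 monolayers, BSA 0.25% on each side, 37 °C. Donor and receiver sampled at 0-90 min after 25-30 min preincubation, analysed by HPLC/MS/MS. Apparent permeabilities derived from transfer rate normalised to area and t=0 donor concentration; ER taken as PappBA over PappAB.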

C[C@H](Oc1cc(-c2ccn(C)n2)nc(-c2onc3c2CCC[C@@]32CCCc3sc(N)c(C#N)c32)n1)[C@@H]1CCCN1C [I-21]
Caco PappAB (apical to basolateral): 5.1 ×10⁻⁶ cm/s
Caco ER (efflux ratio PappBA/PappAB): 6.8
